# Results as given in US4670265A, “Aloe emodin and other anthraquinones and anthraquinone-like compounds from plants virucidal against herpes simplex viruses” (priority 1984, dated 1987).
# Test system: HSV-1 (KOS strain)
# Assay: Plaque Reduction Assay (PRA) for anti-viral activity, HSV-1
# Type: cell-based, herpes simplex virus type 1 (KOS strain)
# Conditions: product of reduction of Aloe emodin
# Protocol: The extract has a direct virucidal effect on HSV under the standardly accepted assay conditions employed. This effect is demonstrable by mixing the test extract directly with HSV and incubating the mixture for 15 minutes at 37° C., then diluting the mixture and assaying for the amount of viable HSV capable of producing plaques in an in vitro cell culture system. A plaque is defined as a visible, localized destruction of cells in culture produced by a single infectious virus particle or plaque forming unit and is the most sensitive assay in virology for quantitating viruses. Depending on the type and concentration of the test extract used, complete inactivation of HSV plaque forming units can be achieved in 15 minutes or less.
# Material for testing was obtained from Aloe plants using either whole leaf homogenates, sap or gel. Other materials for testing included dried leaves of Aloe vera and Senna, dried bark of Frangula and Cascara, dried rhizomes of Rhubarb and a commercial preparation of Aloin. All samples were tested for anti-viral activity by a Plaque Reduction Assay (PRA) using monolayer cultures of Vero (African Green Monkey Kidney) cells grown in MEM+5% calf serum. […] After adsorption, the inoculum was removed, a methyl cellulose/MEM overlay medium was added and after three days incubation the number of plaques per dish counted and averaged. […]
structure (smiles),measurement,value
O=C1c2ccccc2Cc2ccccc21 [anthrone],anti-viral activity (in words),loss of anti-viral activity
